For this assay, the target named is hENPP2 (Homo sapiens, UniProt Q13822). Kind of assay: Human ENPP2 (hENPP2) biochemical assay using LPC as substrate. The settings on record: 150 µM LPC (palmitoyl 16:0), 37°C for 30 min. Summed up:
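Enzyme at 1 or 3 µg/mL final in Tris-HCl pH 8.5, NaCl, KCl, CaCl2, fatty-acid-free BSA; reaction started with 150 µM LPC 16:0 (as added), 30 min at 37°C. Released choline developed with choline oxidase/peroxidase/TOOS/4-aminoantipyrine plus EGTA stop, read at 555 nm after 30 min; 1/3 dilutions from 50 µM give IC50.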
A word on the IC50: it is the point on the concentration scale where inhibition reaches its midpoint. Low values mean higher potency, high ones lower potency. The compound `Cc1cc2[nH]nnc2cc1C(=O)N1CC[C@@H](N2Cc3cnc(Nc4ccc(C(F)(F)F)cc4)nc3C2)C[C@H]1C` [compound 183, (6-methyl-1H-benzotriazol-5-yl)-[(2R,4R)-2-methyl-4-[2-[4-(trifluoromethyl)anilino]-5,7-dihydropyrrolo[3,4-d]pyrimidin-6-yl]-1-piperidyl]methanone] displayed an IC50 of 0.01 to 100 nM.

Regarding `COc1cc(C)cc(Nc2ncc3c(n2)CN([C@@H]2CCN(C(=O)c4cc5nn[nH]c5cc4C)[C@H](C)C2)C3)c1` [compound 184, [(2R,4R)-4-[2-(3-methoxy-5-methyl-anilino)-5,7-dihydropyrrolo[3,4-d]pyrimidin-6-yl]-2-methyl-1-piperidyl]-(6-methyl-1H-benzotriazol-5-yl)methanone], the IC50 was 0.01 to 100 nM.

On to `COc1cc(C)cc(Nc2ncc3c(n2)CN([C@H]2CCN(C(=O)c4cc5nn[nH]c5cc4C)[C@H](C)C2)C3)c1` [compound 185, [(2R,4S)-4-[2-(3-methoxy-5-methyl-anilino)-5,7-dihydropyrrolo[3,4-d]pyrimidin-6-yl]-2-methyl-1-piperidyl]-(6-methyl-1H-benzotriazol-5-yl)methanone], for which the IC50 fell in the range of 0.01 to 100 nM.

`C[C@@H]1C[C@H](N2Cc3cnc(Nc4ccc(C(F)(F)F)cc4)nc3C2)CCN1C(=O)c1ccnc(NS(C)(=O)=O)c1` [compound 186, N-[4-[(2R,4R)-2-methyl-4-[2-[4-(trifluoromethyl)anilino]-5,7-dihydropyrrolo[3,4-d]pyrimidin-6-yl]piperidine-1-carbonyl]-2-pyridyl]methanesulfonamide] registered an IC50 of 0.01 to 100 nM.

`COc1cc(C)cc(Nc2ncc3c(n2)CN([C@@H]2CCN(C(=O)c4ccnc(NS(C)(=O)=O)c4)[C@H](C)C2)C3)c1` [compound 187, N-[4-[(2R,4R)-4-[2-(3-methoxy-5-methyl-anilino)-5,7-dihydropyrrolo[3,4-d]pyrimidin-6-yl]-2-methyl-piperidine-1-carbonyl]-2-pyridyl]methanesulfonamide] yielded an IC50 of 0.01 to 100 nM.

For `C[C@@H]1C[C@H](N2Cc3cnc(Nc4ccc(F)cc4)nc3C2)CCN1C(=O)c1ccnc(NS(C)(=O)=O)c1` [compound 188, N-[4-[(2R,4R)-4-[2-(4-fluoroanilino)-5,7-dihydropyrrolo[3,4-d]pyrimidin-6-yl]-2-methyl-piperidine-1-carbonyl]-2-pyridyl]methanesulfonamide], the IC50 lay within 0.01 to 100 nM.

Turning to `COc1cccc(Nc2ncc3c(n2)CN([C@@H]2CCN(C(=O)c4ccnc(NS(C)(=O)=O)c4)[C@H](C)C2)C3)c1` [compound 189, N-[4-[(2R,4R)-4-[2-(3-methoxyanilino)-5,7-dihydropyrrolo[3,4-d]pyrimidin-6-yl]-2-methyl-piperidine-1-carbonyl]-2-pyridyl]methanesulfonamide], the half-inhibitory concentration (IC50) lay in the range of 0.01 to 100 nM.

Take `C[C@@H]1C[C@@H](N2Cc3cnc(Nc4ccc(C(F)(F)F)cc4)nc3C2)CCN1C(=O)c1ccnc(NS(C)(=O)=O)c1` [compound 190, N-[4-[(2R,4S)-2-methyl-4-[2-[4-(trifluoromethyl)anilino]-5,7-dihydropyrrolo[3,4-d]pyrimidin-6-yl]piperidine-1-carbonyl]-2-pyridyl]methanesulfonamide]: the IC50 lay within 0.01 to 100 nM.

Compound `COc1cc(C)cc(Nc2ncc3c(n2)CN([C@H]2CCN(C(=O)c4ccnc(NS(C)(=O)=O)c4)[C@H](C)C2)C3)c1` [compound 191, N-[4-[(2R,4S)-4-[2-(3-methoxy-5-methyl-anilino)-5,7-dihydropyrrolo[3,4-d]pyrimidin-6-yl]-2-methyl-piperidine-1-carbonyl]-2-pyridyl]methanesulfonamide] returned an IC50 of 100 to 500 nM.

`C[C@@H]1C[C@@H](N2Cc3cnc(Nc4ccc(F)cc4)nc3C2)CCN1C(=O)c1ccnc(NS(C)(=O)=O)c1` [compound 192, N-[4-[(2R,4S)-4-[2-(4-fluoroanilino)-5,7-dihydropyrrolo[3,4-d]pyrimidin-6-yl]-2-methyl-piperidine-1-carbonyl]-2-pyridyl]methanesulfonamide] showed an IC50 above 1000 nM.

On to `COc1cccc(Nc2ncc3c(n2)CN([C@H]2CCN(C(=O)c4ccnc(NS(C)(=O)=O)c4)[C@H](C)C2)C3)c1` [compound 193, N-[4-[(2R,4S)-4-[2-(3-methoxyanilino)-5,7-dihydropyrrolo[3,4-d]pyrimidin-6-yl]-2-methyl-piperidine-1-carbonyl]-2-pyridyl]methanesulfonamide], for which the IC50 is above 1000 nM.

Regarding `Cc1cc(C)cc(Nc2ncc3c(n2)CN(C2(C)CCN(C(=O)c4cc5nn[nH]c5cc4F)CC2)C3)c1` [compound 194, [4-[2-(3,5-dimethylanilino)-5,7-dihydropyrrolo[3,4-d]pyrimidin-6-yl]-4-methyl-1-piperidyl]-(6-fluoro-1H-benzotriazol-5-yl)methanone], the IC50 was above 1000 nM.

In the case of `C[C@@H]1C[C@H](N2Cc3cnc(Nc4ccc(S(F)(F)(F)(F)F)cc4)nc3C2)CCN1C(=O)c1cc2nn[nH]c2cc1F` [compound 195, (6-fluoro-1H-benzotriazol-5-yl)-[(2R,4R)-2-methyl-4-[2-[4-(pentafluoro-λ^6-sulfanyl)anilino]-5,7-dihydropyrrolo[3,4-d]pyrimidin-6-yl]-1-piperidyl]methanone], the IC50 lay within 0.01 to 100 nM.

For `C[C@@H]1C[C@@H](N2Cc3cnc(Nc4ccc(S(F)(F)(F)(F)F)cc4)nc3C2)CCN1C(=O)c1cc2nn[nH]c2cc1F` [compound 196, (6-fluoro-1H-benzotriazol-5-yl)-[(2R,4S)-2-methyl-4-[2-[4-(pentafluoro-λ^6-sulfanyl)anilino] -5,7-dihydropyrrolo[3,4-d]pyrimidin-6-yl]-1-piperidyl]methanone], the IC50 is 0.01 to 100 nM.

Compound `COc1cc(F)cc(Nc2ncc3c(n2)CN([C@@H]2CCN(C(=O)c4cc5nn[nH]c5cc4F)[C@H](C)C2)C3)c1` [compound 197, (6-fluoro-1H-benzotriazol-5-yl)-[(2R,4R)-4-[2-(3-fluoro-5-methoxy-anilino)-5,7-dihydropyrrolo[3,4-d]pyrimidin-6-yl]-2-methyl-1-piperidyl] methanone] came in with an IC50 of 0.01 to 100 nM.

Compound `Cc1cc(C)cc(Nc2ncc3c(n2)CN([C@@H]2CCN(C(=O)c4ccnc(N)c4)[C@H](C)C2)C3)c1` [compound 198, (2-amino-4-pyridyl)-[(2R,4R)-4-[2-(3,5-dimethylanilino)-5,7-dihydropyrrolo[3,4-d]pyrimidin-6-yl]-2-methyl-1-piperidyl]methanone] had an IC50 above 1000 nM.

`Cc1cc(C)cc(Nc2ncc3c(n2)CCN(C2CCN(C(=O)C4CCN(c5cc6nn[nH]c6cc5C)CC4)CC2)C3)c1` [compound 199, [4-[2-(3,5-dimethylanilino)-7,8-dihydro-5H-pyrido[4,3-d]pyrimidin-6-yl]-1-piperidyl]-[1-(6-methyl-1H-benzotriazol-5-yl)-4-piperidyl]methanone] came in with an IC50 above 1000 nM.

In turn, `COc1cc(Nc2ncc3c(n2)CN([C@@H]2CCN(C(=O)c4ccnc(NS(C)(=O)=O)c4)[C@H](C)C2)C3)cc(OC)c1` [compound 200, N-[4-[(2R,4R)-4-[2-(3,5-dimethoxyanilino)-5,7-dihydropyrrolo[3,4-d]pyrimidin-6-yl]-2-methyl-piperidine-1-carbonyl]-2-pyridyl]methanesulfonamide] had an IC50 of 0.01 to 100 nM.

In turn, `CS(=O)(=O)Nc1cc(C(=O)N2CCC(N3Cc4cnc(Nc5ccc(C(F)(F)F)cc5)nc4C3)CC2)ccn1` [compound 201, N-[4-[4-[2-[4-(trifluoromethyl)anilino]-5,7-dihydropyrrolo[3,4-d]pyrimidin-6-yl]piperidine-1-carbonyl]-2-pyridyl]methanesulfonamide] showed an IC50 of 0.01 to 100 nM.

For `Cc1cc(C)cc(Nc2ncc3c(n2)CN(C2CCN(C(=O)c4ccnc(NS(C)(=O)=O)c4)CC2)C3)c1` [compound 202, N-[4-[4-[2-(3,5-dimethylanilino)-5,7-dihydropyrrolo[3,4-d]pyrimidin-6-yl]piperidine-1-carbonyl]-2-pyridyl]methanesulfonamide], the IC50 lay in the range of 0.01 to 100 nM.

`Cc1cccc(Nc2ncc3c(n2)CN([C@@H]2CCN(C(=O)c4ccnc(NS(C)(=O)=O)c4)[C@H](C)C2)C3)c1` [compound 203, N-[4-[(2R,4R)-2-methyl-4-[2-(3-methylanilino)-5,7-dihydropyrrolo[3,4-d]pyrimidin-6-yl]piperidine-1-carbonyl]-2-pyridyl]methanesulfonamide] returned an IC50 of 0.01 to 100 nM.

For the compound `COc1cc(F)cc(Nc2ncc3c(n2)CN([C@@H]2CCN(C(=O)c4ccnc(NS(C)(=O)=O)c4)[C@H](C)C2)C3)c1` [compound 204, N-[4-[(2R,4R)-4-[2-(3-fluoro-5-methoxy-anilino)-5,7-dihydropyrrolo[3,4-d]pyrimidin-6-yl] -2-methyl-piperidine-1-carbonyl]-2-pyridyl]methanesulfonamide], the IC50 lay in the range of 100 to 500 nM.

`C[C@@H]1C[C@H](N2Cc3cnc(Nc4ccc(OC(F)(F)F)cc4)nc3C2)CCN1C(=O)c1ccnc(NS(C)(=O)=O)c1` [compound 205, N-[4-[(2R,4R)-2-methyl-4-[2-[4-(trifluoromethoxy)anilino]-5,7-dihydropyrrolo[3,4-d]pyrimidin-6-yl]piperidine-1-carbonyl]-2-pyridyl]methanesulfonamide] displayed an IC50 of 0.01 to 100 nM.

The compound `Cc1cc(C)cc(Nc2ncc3c(n2)CN([C@@H]2CCN(C(=O)c4cccc(NS(C)(=O)=O)c4)[C@H](C)C2)C3)c1` [compound 206, N-[3-[(2R,4R)-4-[2-(3,5-dimethylanilino)-5,7-dihydropyrrolo[3,4-d]pyrimidin-6-yl]-2-methyl-piperidine-1-carbonyl]phenyl]methanesulfonamide] returned an IC50 above 1000 nM.

For `Cc1cc(Nc2ncc3c(n2)CN([C@@H]2CCN(C(=O)c4ccnc(NS(C)(=O)=O)c4)[C@H](C)C2)C3)ccc1F` [compound 207, N-[4-[(2R,4R)-4-[2-(4-fluoro-3-methyl-anilino)-5,7-dihydropyrrolo[3,4-d]pyrimidin-6-yl]-2-methyl-piperidine-1-carbonyl]-2-pyridyl]methanesulfonamide], the IC50 was in the range of 0.01 to 100 nM.

The record behind these values is patent EP3782997A1, “FUSED PYRIMIDINE COMPOUNDS AND PHARMACEUTICAL COMPOSITIONS THEREOF FOR THE TREATMENT OF FIBROTIC DISEASES” (Galapagos N.V., priority 2019, dated 2021).
